In patent publication US7297700B2, “Bicycloheteroaryl compounds as P2X7 modulators and uses thereof” (Renovis, Inc., priority 2005, dated 2007) one finds IL-1β % inhibition data, which are given here for 20 compounds.

SMILES strings stand for the structures.

This experiment relates to IL-1β release from THP-1 cells. Briefly: IL-1β Release Assay (Alternate Method), THP-1 cells. The format is cell-based, human. Particulars: at 0.3 μM; THP-1 cells, BzATP-stimulated. An outline of the steps: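 THP-1 cells differentiated 16 h with 100 ng/mL LPS plus 100 ng/mL IFN-γ, reprimed 2 h with 100 ng/mL LPS, pretreated 30 min with compound, then challenged 45 min with 250 uM BzATP (final). Supernatant IL-1β quantified by ELISA; percent inhibition from background-adjusted levels versus untreated cells.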
For `O=C(Nc1ncnc2c1CCN(S(=O)(=O)c1cc(F)ccc1F)C2)C12CC3CC(CC(C3)C1)C2` [Compound 537], the IL-1β % inhibition result is reported as “++ (compound exhibited 25-50% inhibition at 0.3 μM)”.

Consider `O=C(Nc1ncnc2c1CCN(S(=O)(=O)c1cc(Cl)ccc1Cl)C2)C12CC3CC(CC(C3)C1)C2` [Compound 538], for which the IL-1β % inhibition entry was “++ (compound exhibited 25-50% inhibition at 0.3 μM)”.

On to `O=C(Nc1ncnc2c1CCN(S(=O)(=O)c1cc(Cl)ccc1F)C2)C12CC3CC(CC(C3)C1)C2` [Compound 539], for which the IL-1β % inhibition entry was “++ (compound exhibited 25-50% inhibition at 0.3 μM)”.

As to `O=C(Nc1ncnc2c1CCN(S(=O)(=O)c1c(F)cccc1F)C2)C12CC3CC(CC(C3)C1)C2` [Compound 540], the IL-1β % inhibition result is “+ (compound exhibited 0-25% inhibition at 0.3 μM)”.

Consider `Cc1ccc(S(=O)(=O)N2CCc3c(ncnc3NC(=O)C34CC5CC(CC(C5)C3)C4)C2)cc1Cl` [Compound 541], for which the IL-1β % inhibition entry is listed as “++++ (compound exhibited 75% or greater inhibition at 0.3 μM)”.

As for `O=C(Nc1ncnc2c1CCN(S(=O)(=O)c1cc(Cl)cc(Cl)c1)C2)C12CC3CC(CC(C3)C1)C2` [Compound 542], the IL-1β % inhibition entry is “+ (compound exhibited 0-25% inhibition at 0.3 μM)”.

Consider `O=C(Nc1ncnc2c1CCN(S(=O)(=O)c1ccc(F)cc1F)C2)C12CC3CC(CC(C3)C1)C2` [Compound 543], for which the IL-1β % inhibition entry is given as “++ (compound exhibited 25-50% inhibition at 0.3 μM)”.

With `O=C(Nc1ncnc2c1CCN(S(=O)(=O)c1ccc(F)cc1Cl)C2)C12CC3CC(CC(C3)C1)C2` [Compound 545], the IL-1β % inhibition entry is reported as “++ (compound exhibited 25-50% inhibition at 0.3 μM)”.

As to `Cc1ccc(F)cc1S(=O)(=O)N1CCc2c(ncnc2NC(=O)C23CC4CC(CC(C4)C2)C3)C1` [Compound 546], the IL-1β % inhibition result is “+ (compound exhibited 0-25% inhibition at 0.3 μM)”.

As to `COc1ccc(C)cc1S(=O)(=O)N1CCc2c(ncnc2NC(=O)C23CC4CC(CC(C4)C2)C3)C1` [Compound 548], the IL-1β % inhibition result is “+ (compound exhibited 0-25% inhibition at 0.3 μM)”.

Regarding `COc1ccc(OC)c(S(=O)(=O)N2CCc3c(ncnc3NC(=O)C34CC5CC(CC(C5)C3)C4)C2)c1` [Compound 549], the IL-1β % inhibition result was “++ (compound exhibited 25-50% inhibition at 0.3 μM)”.

For `Cc1cc(C)cc(S(=O)(=O)N2CCc3c(ncnc3NC(=O)C34CC5CC(CC(C5)C3)C4)C2)c1` [Compound 550], the IL-1β % inhibition result is reported as “+ (compound exhibited 0-25% inhibition at 0.3 μM)”.

For `CC(CCN1CCc2c(ncnc2NC(=O)C23CC4CC(CC(C4)C2)C3)C1)CC(C)(C)C` (centres unmarked) [Compound 552], the IL-1β % inhibition result is given as “++++ (compound exhibited 75% or greater inhibition at 0.3 μM)”.

On to `O=C(Nc1ncnc2c1CCN(CC(c1ccccc1)c1ccccc1)C2)C12CC3CC(CC(C3)C1)C2` [Compound 553], for which the IL-1β % inhibition result was “++ (compound exhibited 25-50% inhibition at 0.3 μM)”.

Take `CC(CN1CCc2c(ncnc2NC(=O)C23CC4CC(CC(C4)C2)C3)C1)c1ccccc1` (centres unmarked) [Compound 554]: the IL-1β % inhibition entry is recorded as “++++ (compound exhibited 75% or greater inhibition at 0.3 μM)”.

Turning to `CCCN1CCc2c(ncnc2NC(=O)C23CC4CC(CC(C4)C2)C3)C1` [Compound 555], the IL-1β % inhibition result is “+ (compound exhibited 0-25% inhibition at 0.3 μM)”.

Consider `O=C(Nc1ncnc2c1CCN(CC1CCCCC1)C2)C12CC3CC(CC(C3)C1)C2` [Compound 556], for which the IL-1β % inhibition entry was “+ (compound exhibited 0-25% inhibition at 0.3 μM)”.

For the compound `O=C(Nc1ncnc2c1CCN(CC1CC1)C2)C12CC3CC(CC(C3)C1)C2` [Compound 557], the IL-1β % inhibition result is given as “+ (compound exhibited 0-25% inhibition at 0.3 μM)”.

In the case of `CCCCCN1CCc2c(ncnc2NC(=O)C23CC4CC(CC(C4)C2)C3)C1` [Compound 558], the IL-1β % inhibition entry is “++ (compound exhibited 25-50% inhibition at 0.3 μM)”.

Turning to `O=C(Nc1ncnc2c1CCN(CCCc1ccccc1)C2)C12CC3CC(CC(C3)C1)C2` [Compound 559], the IL-1β % inhibition entry was “++ (compound exhibited 25-50% inhibition at 0.3 μM)”.
